# Assays:
# Experiment in all cases: DSF 100 kinase selectivity screen;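 also: compound tested at 20 µM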
# Type in all cases: binding
# [1] = biological target: T1, ~100 representative kinases (Homo sapiens, UniProt O96017); conditions: Protein CHEK2; average of three replicates
# T1 construct: Recombinant protein kinase domains with a concentration of 2 μM
# How it was run: (§1)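 Each kinase domain, at 2 μM, is mixed with 20 μM test compound and SYPRO Orange in Hepes (20 mM, pH 7.5) with 500 mM NaCl. Temperature is then raised at 3°C/min and fluorescence-monitored unfolding yields the melting temperature change, ΔTm in degrees Celsius.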
# [2] = biological target: T2, ~100 representative kinases (Homo sapiens, UniProt O14936); conditions: Protein CASK; average of three replicates
# T2 construct: Recombinant protein kinase domains with a concentration of 2 μM
# T2 sequence (O14936 1-926): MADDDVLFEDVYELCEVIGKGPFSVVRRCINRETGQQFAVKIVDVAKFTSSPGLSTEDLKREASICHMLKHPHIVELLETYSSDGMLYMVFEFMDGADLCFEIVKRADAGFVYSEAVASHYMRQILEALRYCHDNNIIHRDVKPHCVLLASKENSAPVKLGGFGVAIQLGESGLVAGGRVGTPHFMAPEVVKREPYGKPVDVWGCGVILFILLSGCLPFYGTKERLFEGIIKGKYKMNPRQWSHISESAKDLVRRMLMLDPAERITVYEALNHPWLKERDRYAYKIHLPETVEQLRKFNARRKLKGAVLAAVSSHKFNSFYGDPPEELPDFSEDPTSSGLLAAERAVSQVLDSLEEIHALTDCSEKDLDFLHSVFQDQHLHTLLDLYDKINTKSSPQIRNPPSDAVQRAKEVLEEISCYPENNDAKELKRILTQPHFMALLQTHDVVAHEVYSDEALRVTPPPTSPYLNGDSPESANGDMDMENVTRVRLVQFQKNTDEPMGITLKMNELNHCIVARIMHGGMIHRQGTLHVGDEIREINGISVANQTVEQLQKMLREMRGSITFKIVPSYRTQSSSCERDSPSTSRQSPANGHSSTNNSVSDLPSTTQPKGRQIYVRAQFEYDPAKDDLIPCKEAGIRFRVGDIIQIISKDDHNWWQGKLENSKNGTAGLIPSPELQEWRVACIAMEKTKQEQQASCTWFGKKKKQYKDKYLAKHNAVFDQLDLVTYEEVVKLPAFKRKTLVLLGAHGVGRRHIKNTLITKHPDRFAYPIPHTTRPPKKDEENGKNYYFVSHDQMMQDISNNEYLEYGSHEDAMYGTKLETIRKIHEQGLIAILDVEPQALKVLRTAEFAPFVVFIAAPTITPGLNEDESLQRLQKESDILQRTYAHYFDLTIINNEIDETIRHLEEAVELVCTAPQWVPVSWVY
# How it was run: as §1
# [3] = biological target: T3, ~100 representative kinases (Homo sapiens, UniProt O14976); conditions: protein GAK; average of three replicates
# T3 construct: Recombinant protein kinase domains with a concentration of 2 μM
# T3 sequence (O14976 1-1311): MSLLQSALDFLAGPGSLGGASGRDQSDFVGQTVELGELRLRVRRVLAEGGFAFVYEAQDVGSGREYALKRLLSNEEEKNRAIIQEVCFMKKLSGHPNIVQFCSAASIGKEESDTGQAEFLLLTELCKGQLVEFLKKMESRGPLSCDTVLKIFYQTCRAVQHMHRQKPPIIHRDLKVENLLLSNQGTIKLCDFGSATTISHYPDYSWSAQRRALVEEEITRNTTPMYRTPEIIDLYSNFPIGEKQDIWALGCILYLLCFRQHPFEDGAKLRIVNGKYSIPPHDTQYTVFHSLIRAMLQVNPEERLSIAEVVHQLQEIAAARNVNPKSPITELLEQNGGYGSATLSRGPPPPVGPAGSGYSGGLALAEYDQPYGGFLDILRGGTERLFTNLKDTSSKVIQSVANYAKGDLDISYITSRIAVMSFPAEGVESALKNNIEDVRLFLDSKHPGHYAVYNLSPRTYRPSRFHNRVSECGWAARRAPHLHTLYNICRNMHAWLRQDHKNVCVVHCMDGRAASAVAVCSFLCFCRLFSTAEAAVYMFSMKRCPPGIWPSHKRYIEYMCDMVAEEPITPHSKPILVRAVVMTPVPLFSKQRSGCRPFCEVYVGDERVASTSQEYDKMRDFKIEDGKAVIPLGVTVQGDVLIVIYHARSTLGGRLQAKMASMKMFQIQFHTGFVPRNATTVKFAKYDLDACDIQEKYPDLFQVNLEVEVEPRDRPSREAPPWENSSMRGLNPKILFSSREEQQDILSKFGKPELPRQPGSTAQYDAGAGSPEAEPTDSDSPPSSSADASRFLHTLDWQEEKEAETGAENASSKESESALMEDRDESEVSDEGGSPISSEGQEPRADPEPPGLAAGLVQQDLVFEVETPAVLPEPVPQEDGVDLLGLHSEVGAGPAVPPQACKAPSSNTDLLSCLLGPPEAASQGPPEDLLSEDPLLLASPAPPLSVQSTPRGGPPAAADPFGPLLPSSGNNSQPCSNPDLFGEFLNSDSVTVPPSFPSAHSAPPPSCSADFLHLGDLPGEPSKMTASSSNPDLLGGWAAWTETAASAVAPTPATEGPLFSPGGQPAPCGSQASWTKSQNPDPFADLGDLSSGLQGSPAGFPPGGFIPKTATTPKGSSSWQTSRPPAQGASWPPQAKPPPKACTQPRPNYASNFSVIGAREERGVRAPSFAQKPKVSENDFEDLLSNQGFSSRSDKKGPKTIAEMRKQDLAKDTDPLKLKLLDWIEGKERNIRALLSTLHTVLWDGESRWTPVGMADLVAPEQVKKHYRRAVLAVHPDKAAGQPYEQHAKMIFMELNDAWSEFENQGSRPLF
# How it was run: as §1
# T1 sequence (O96017 whole entry, the tested form may be a part): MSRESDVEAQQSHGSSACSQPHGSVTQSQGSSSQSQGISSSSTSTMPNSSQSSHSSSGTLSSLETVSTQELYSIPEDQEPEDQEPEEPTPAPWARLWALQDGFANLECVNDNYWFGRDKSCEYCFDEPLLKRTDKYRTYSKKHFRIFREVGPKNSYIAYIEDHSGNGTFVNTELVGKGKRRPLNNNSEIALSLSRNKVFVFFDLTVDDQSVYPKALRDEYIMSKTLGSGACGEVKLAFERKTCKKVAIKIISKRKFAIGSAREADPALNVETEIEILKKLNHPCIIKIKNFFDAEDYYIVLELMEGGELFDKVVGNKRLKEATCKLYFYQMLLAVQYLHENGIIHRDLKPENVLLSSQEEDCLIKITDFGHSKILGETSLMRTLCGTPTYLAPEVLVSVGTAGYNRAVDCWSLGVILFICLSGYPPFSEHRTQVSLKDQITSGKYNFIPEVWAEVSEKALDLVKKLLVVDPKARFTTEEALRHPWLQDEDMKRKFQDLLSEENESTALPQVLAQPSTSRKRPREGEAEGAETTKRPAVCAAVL
SMILES,dTm [1] [K],dTm [2] [K],dTm [3] [K]
Cc1ccc(C(=O)Nc2ccc(CN3CCN(C)CC3)c(C(F)(F)F)c2)cc1C#Cc1c[nH]c2ncnc(N3CCOCC3)c12 [Compound 1],15.46,1.18,3.03
O=C(Nc1ccc(F)cc1)C1(C(=O)Nc2cccc(-c3c[nH]c4ncnc(N5CCOCC5)c34)c2)CC1 [Compound 2],4.13,0.30,0.23
O=C(Nc1cccc(-c2c[nH]c3ncnc(N4CCOCC4)c23)c1)c1cccn(-c2ccc(F)cc2)c1=O [Compound 4],3.03,-0.18,0.0652
Cc1cc(NC(=O)C2(C(=O)Nc3ccc(F)cc3)CC2)cc(-c2c[nH]c3ncnc(N4CCOCC4)c23)c1 [Compound 6],1.23,0.76,0.83
O=C(Nc1cccc(-c2c[nH]c3ncnc(N4CCOCC4)c23)c1)C1(C(=O)Nc2cccc3c2CCC3)CC1 [Compound 11],1.65,-5.15,-0.59
O=C(Nc1ccccc1)C1(C(=O)Nc2cccc(-c3c[nH]c4ncnc(N5CCOCC5)c34)c2)CC1 [Compound 12],3.05,0.25,1.44
O=C(Nc1ccc(Cl)cc1)C1(C(=O)Nc2cccc(-c3c[nH]c4ncnc(N5CCOCC5)c34)c2)CC1 [Compound 13],5.52,0.70,1.60
Cc1ccc(NC(=O)C2(C(=O)Nc3cccc(-c4c[nH]c5ncnc(N6CCOCC6)c45)c3)CC2)cc1 [Compound 14],3.90,0.19,0.81
CCc1ccc(NC(=O)C2(C(=O)Nc3cccc(-c4c[nH]c5ncnc(N6CCOCC6)c45)c3)CC2)cc1 [Compound 15],6.14,0.36,0.09
COc1ccc(NC(=O)C2(C(=O)Nc3cccc(-c4c[nH]c5ncnc(N6CCOCC6)c45)c3)CC2)cc1 [Compound 16],2.18,0.15,0.0654
O=C(Nc1cccc(-c2c[nH]c3ncnc(N4CCOCC4)c23)c1)C1(C(=O)Nc2ccc(F)c(F)c2)CC1 [Compound 17],4.07,0.19,1.14
O=C(Nc1cccc(-c2c[nH]c3ncnc(N4CCOCC4)c23)c1)C1(C(=O)Nc2ccc(F)c(Cl)c2)CC1 [Compound 18],5.34,0.56,1.28
O=C(Nc1cccc(-c2c[nH]c3ncnc(N4CCOCC4)c23)c1)C1(C(=O)Nc2ccc(F)c(Br)c2)CC1 [Compound 19],3.80,1.26,1.18
Cc1cc(NC(=O)C2(C(=O)Nc3cccc(-c4c[nH]c5ncnc(N6CCOCC6)c45)c3)CC2)ccc1F [Compound 20],5.31,0.17,1.48
COc1cc(NC(=O)C2(C(=O)Nc3cccc(-c4c[nH]c5ncnc(N6CCOCC6)c45)c3)CC2)ccc1F [Compound 21],4.32,0.09,0.54
CC(C)(C)c1cccc(NC(=O)C2(C(=O)Nc3cccc(-c4c[nH]c5ncnc(N6CCOCC6)c45)c3)CC2)c1 [Compound 22],3.64,1.08,-2.23
O=C(Nc1cccc(-c2c[nH]c3ncnc(N4CCOCC4)c23)c1)C1(C(=O)Nc2ccc(F)cc2F)CC1 [Compound 23],3.32,0.06,0.67
Cc1cc(F)ccc1NC(=O)C1(C(=O)Nc2cccc(-c3c[nH]c4ncnc(N5CCOCC5)c34)c2)CC1 [Compound 24],2.66,-0.0179,0.84
O=C(Nc1cccc(-c2c[nH]c3ncnc(N4CCOCC4)c23)c1)C1(C(=O)Nc2cc(Br)c(F)cc2F)CC1 [Compound 25],2.02,1.03,0.71
O=C(Nc1cccc(-c2c[nH]c3ncnc(N4CCOCC4)c23)c1)C1(C(=O)Nc2ccc(F)c(Br)c2F)CC1 [Compound 26],2.81,1.04,0.91
O=C(Nc1cc(F)cc(Br)c1)C1(C(=O)Nc2cccc(-c3c[nH]c4ncnc(N5CCOCC5)c34)c2)CC1 [Compound 27],1.74,1.15,-0.90
CC(C)(C)c1cc(NC(=O)Nc2cccc(-c3c[nH]c4ncnc(N5CCOCC5)c34)c2)n(-c2ccc3ncccc3c2)n1 [Compound 28],10.72,0.70,7.34
Cc1ccc(-n2nc(C(C)(C)C)cc2NC(=O)Nc2cccc(-c3c[nH]c4ncnc(N5CCOCC5)c34)c2)cc1 [Compound 29],12.51,0.14,0.00
Cc1ccc(-n2nc(C(C)(C)C)cc2NC(=O)Nc2cccc(-c3c[nH]c4nc(Cl)nc(N5CCOCC5)c34)c2)cc1 [Compound 30],4.41,-0.47,-1.53
CC(=O)N1CCN(c2nc(Cl)nc3[nH]cc(-c4cccc(NC(=O)Nc5cc(C(C)(C)C)nn5-c5ccc(C)cc5)c4)c23)CC1 [Compound 31],5.59,-2.83,3.32
CCSc1nc(NC)c2c(-c3cccc(NC(=O)Nc4cc(C(C)(C)C)nn4-c4ccc(C)cc4)c3)c[nH]c2n1 [Compound 32],3.19,-0.26,-1.07
COc1cc(C(=O)N2CCOCC2)c(F)cc1Nc1nc(N(C)C)c2c(Cl)c[nH]c2n1 [Compound 36],13.85,-0.72,6.68
COc1cc(S(C)(=O)=O)ccc1Nc1nc(N(C)C)c2c(Cl)c[nH]c2n1 [Compound 37],7.39,-0.21,3.76
"COc1cc2c(Oc3ccc(NC(=O)C4(C(=O)Nc5ccc(F)cc5)CC4)cc3F)ccnc2cc1OCCCN1CCOCC1 [Foretinib, reference compound]",18.83,0.53,2.91
CCNc1nc(Nc2cc(F)c(C(=O)N3CCOCC3)cc2OC)ncc1C(F)(F)F [GNE-7915],0.72,0.33,0.77

# Reference: article PMC12136037, “Type II kinase inhibitors that target Parkinson’s disease–associated LRRK2” (Science Advances, 2025)
